pIC50: −log10 of the molar value. Blank lines part the entries; values can stand above or below the compound they belong to.
Test system: 996289-038-R-J1-PDC complex spheroid viability
Assay: Anticancer human tumor 996289-038-R-J1-PDC patient-derived colon adenocarcinoma cell line growth inhibition [CLK]
Details: for pIC50: curve of first compound; for viability, T/C: stronger effect = lower value
How it was run: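 Multi-cell-type spheroids combined patient-derived tumor cells with HUVEC endothelial cells and human mesenchymal stem cells. Paired agents were dosed in half-log steps down from about clinical Cmax, or from 10 microM where Cmax was unknown.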

[1] = second compound 0.0316 µM, first compound 0.0316 µM
[2] = second compound 0.0316 µM, first compound 0.1 µM
[3] = second compound 0.0316 µM, first compound 0.316 µM
[4] = second compound 0.0316 µM, first compound 1 µM
[5] = second compound 0.1 µM, first compound 0.0316 µM
[6] = second compound 0.1 µM, first compound 0.1 µM
[7] = second compound 0.1 µM, first compound 0.316 µM
[8] = second compound 0.1 µM, first compound 1 µM
[9] = second compound 0.316 µM, first compound 0.0316 µM
[10] = second compound 0.316 µM, first compound 0.1 µM
[11] = second compound 0.316 µM, first compound 0.316 µM
[12] = second compound 0.316 µM, first compound 1 µM
[13] = second compound 1 µM, first compound 0.0316 µM
[14] = second compound 1 µM, first compound 0.1 µM
[15] = second compound 1 µM, first compound 0.316 µM
[16] = second compound 1 µM, first compound 1 µM
[17] = second compound 3.16 µM, first compound 0.0316 µM
[18] = second compound 3.16 µM, first compound 0.1 µM
[19] = second compound 3.16 µM, first compound 0.316 µM
[20] = second compound 3.16 µM, first compound 1 µM
[21] = second compound 10 µM, first compound 0.0316 µM
[22] = second compound 10 µM, first compound 0.1 µM
[23] = second compound 10 µM, first compound 0.316 µM
[24] = second compound 10 µM, first compound 1 µM
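Further: spheroids exposed to the agents for 7 days before readout.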

pIC50 (second compound 0.0316 µM): < 6.52
pIC50 (second compound 0.1 µM): < 6.52
pIC50 (second compound 0.316 µM): < 6.52
pIC50 (second compound 1 µM): 6.86
pIC50 (second compound 3.16 µM): 7.04
pIC50 (second compound 10 µM): 7.24
SMILES: C=CC(=O)Nc1cc(Nc2nccc(-c3cn(C)c4ccccc34)n2)c(OC)cc1N(C)CCN(C)C + CNC(=O)c1ccc(Nc2nc(OC3CCCC3)c3c(-c4ccc5nc(C)oc5c4)c[nH]c3n2)c(OC)c1
viability, T/C (second compound 0.0316 µM, first compound 0.000949 µM): 118%
viability, T/C (second compound 0.0316 µM, first compound 0.003 µM): 123%
viability, T/C (second compound 0.0316 µM, first compound 0.00949 µM): 112%
viability, T/C (second compound 0.0316 µM, first compound 0.03 µM): 117%
viability, T/C (second compound 0.0316 µM, first compound 0.0949 µM): 113%
viability, T/C (second compound 0.0316 µM, first compound 0.3 µM): 85.8%
viability, T/C (second compound 0.1 µM, first compound 0.000949 µM): 109%
viability, T/C (second compound 0.1 µM, first compound 0.003 µM): 124%
viability, T/C (second compound 0.1 µM, first compound 0.00949 µM): 106%
viability, T/C (second compound 0.1 µM, first compound 0.03 µM): 109%
viability, T/C (second compound 0.1 µM, first compound 0.0949 µM): 110%
viability, T/C (second compound 0.1 µM, first compound 0.3 µM): 77.4%
viability, T/C (second compound 0.316 µM, first compound 0.000949 µM): 74%
viability, T/C (second compound 0.316 µM, first compound 0.003 µM): 74.3%
viability, T/C (second compound 0.316 µM, first compound 0.00949 µM): 72.7%
viability, T/C (second compound 0.316 µM, first compound 0.03 µM): 69.4%
viability, T/C (second compound 0.316 µM, first compound 0.0949 µM): 68.8%
viability, T/C (second compound 0.316 µM, first compound 0.3 µM): 52.5%
viability, T/C (second compound 1 µM, first compound 0.000949 µM): 69.7%
viability, T/C (second compound 1 µM, first compound 0.003 µM): 67.5%
viability, T/C (second compound 1 µM, first compound 0.00949 µM): 62%
viability, T/C (second compound 1 µM, first compound 0.03 µM): 61.6%
viability, T/C (second compound 1 µM, first compound 0.0949 µM): 53.2%
viability, T/C (second compound 1 µM, first compound 0.3 µM): 43.1%
viability, T/C (second compound 3.16 µM, first compound 0.000949 µM): 64.2%
viability, T/C (second compound 3.16 µM, first compound 0.003 µM): 60.8%
viability, T/C (second compound 3.16 µM, first compound 0.00949 µM): 56.5%
viability, T/C (second compound 3.16 µM, first compound 0.03 µM): 53%
viability, T/C (second compound 3.16 µM, first compound 0.0949 µM): 53.1%
viability, T/C (second compound 3.16 µM, first compound 0.3 µM): 43.8%
viability, T/C (second compound 10 µM, first compound 0.000949 µM): 60.9%
viability, T/C (second compound 10 µM, first compound 0.003 µM): 55.9%
viability, T/C (second compound 10 µM, first compound 0.00949 µM): 55%
viability, T/C (second compound 10 µM, first compound 0.03 µM): 54.7%
viability, T/C (second compound 10 µM, first compound 0.0949 µM): 47.4%
viability, T/C (second compound 10 µM, first compound 0.3 µM): 38.2%

pIC50 (second compound 0.0316 µM): < 6.00
pIC50 (second compound 0.1 µM): < 6.00
pIC50 (second compound 0.316 µM): < 6.00
pIC50 (second compound 1 µM): < 6.00
pIC50 (second compound 3.16 µM): < 6.00
pIC50 (second compound 10 µM): < 6.00
SMILES: CCN1CCN(Cc2ccc(Nc3ncc(F)c(-c4cc(F)c5nc(C)n(C(C)C)c5c4)n3)nc2)CC1 + CNC(=O)c1ccc(Nc2nc(OC3CCCC3)c3c(-c4ccc5nc(C)oc5c4)c[nH]c3n2)c(OC)c1
viability, T/C (second compound 0.0316 µM, first compound 0.00316 µM): 109%
viability, T/C (second compound 0.0316 µM, first compound 0.01 µM): 103%
viability, T/C [1]: 106%
viability, T/C [2]: 97.6%
viability, T/C [3]: 92.6%
viability, T/C [4]: 96.2%
viability, T/C (second compound 0.1 µM, first compound 0.00316 µM): 115%
viability, T/C (second compound 0.1 µM, first compound 0.01 µM): 111%
viability, T/C [5]: 108%
viability, T/C [6]: 91.8%
viability, T/C [7]: 86.5%
viability, T/C [8]: 86.7%
viability, T/C (second compound 0.316 µM, first compound 0.00316 µM): 79%
viability, T/C (second compound 0.316 µM, first compound 0.01 µM): 81.2%
viability, T/C [9]: 80.8%
viability, T/C [10]: 75%
viability, T/C [11]: 82.8%
viability, T/C [12]: 76.8%
viability, T/C (second compound 1 µM, first compound 0.00316 µM): 72.6%
viability, T/C (second compound 1 µM, first compound 0.01 µM): 70.2%
viability, T/C [13]: 64.2%
viability, T/C [14]: 66.9%
viability, T/C [15]: 64.8%
viability, T/C [16]: 77.1%
viability, T/C (second compound 3.16 µM, first compound 0.00316 µM): 62.5%
viability, T/C (second compound 3.16 µM, first compound 0.01 µM): 62.1%
viability, T/C [17]: 61.9%
viability, T/C [18]: 64.9%
viability, T/C [19]: 73.2%
viability, T/C [20]: 65.9%
viability, T/C (second compound 10 µM, first compound 0.00316 µM): 66%
viability, T/C (second compound 10 µM, first compound 0.01 µM): 63.9%
viability, T/C [21]: 61.3%
viability, T/C [22]: 62.2%
viability, T/C [23]: 68.1%
viability, T/C [24]: 59.8%

pIC50 (second compound 0.0316 µM): 5.15
pIC50 (second compound 0.1 µM): 5.16
pIC50 (second compound 0.316 µM): 5.39
pIC50 (second compound 1 µM): 5.77
pIC50 (second compound 3.16 µM): 5.73
pIC50 (second compound 10 µM): 5.74
SMILES: Nc1ccccc1NC(=O)c1ccc(CNC(=O)OCc2cccnc2)cc1 + CNC(=O)c1ccc(Nc2nc(OC3CCCC3)c3c(-c4ccc5nc(C)oc5c4)c[nH]c3n2)c(OC)c1
viability, T/C [1]: 118%
viability, T/C [2]: 103%
viability, T/C [3]: 113%
viability, T/C [4]: 91.8%
viability, T/C (second compound 0.0316 µM, first compound 3.16 µM): 70.7%
viability, T/C (second compound 0.0316 µM, first compound 10 µM): 41.3%
viability, T/C [5]: 118%
viability, T/C [6]: 110%
viability, T/C [7]: 120%
viability, T/C [8]: 97.9%
viability, T/C (second compound 0.1 µM, first compound 3.16 µM): 71%
viability, T/C (second compound 0.1 µM, first compound 10 µM): 40.2%
viability, T/C [9]: 85.5%
viability, T/C [10]: 82.9%
viability, T/C [11]: 74.3%
viability, T/C [12]: 75.5%
viability, T/C (second compound 0.316 µM, first compound 3.16 µM): 54%
viability, T/C (second compound 0.316 µM, first compound 10 µM): 31.3%
viability, T/C [13]: 70.6%
viability, T/C [14]: 70.7%
viability, T/C [15]: 66.7%
viability, T/C [16]: 59.9%
viability, T/C (second compound 1 µM, first compound 3.16 µM): 38.8%
viability, T/C (second compound 1 µM, first compound 10 µM): 12.5%
viability, T/C [17]: 63.8%
viability, T/C [18]: 66.1%
viability, T/C [19]: 63.8%
viability, T/C [20]: 62.2%
viability, T/C (second compound 3.16 µM, first compound 3.16 µM): 40.1%
viability, T/C (second compound 3.16 µM, first compound 10 µM): 8.12%
viability, T/C [21]: 60.8%
viability, T/C [22]: 63.3%
viability, T/C [23]: 57.2%
viability, T/C [24]: 62.6%
viability, T/C (second compound 10 µM, first compound 3.16 µM): 40.3%
viability, T/C (second compound 10 µM, first compound 10 µM): 7.43%

Source: PubChem BioAssay AID2060600 (Molecular Pharmacology Branch, DTP, NCI, 2025)
